These results are taken from article PMC5672024, “Selective Glucocorticoid Receptor Properties of GSK866 Analogs with Cysteine Reactive Warheads” (Frontiers in Immunology, 2017).

One experiment has as its system IL6 mRNA. Briefly: qPCR of TNF-inducible IL6 in HaCat cells. Type of experiment: cell-based. Particulars: 6 h, 10, 100 or 1,000 nM, TNF 2,500 IU/ml last 4 h. The protocol:
qPCR was performed using the GoTaq qPCR Master Mix (Promega) according to manufacturer’s instructions. In short, a 25 µl reaction volume mix per sample was prepared containing 12.5 µl GoTaq qPCR Master Mix, 0.4 µM forward and reverse primer, and nuclease-free water. We used the Rotor-Gene Q qPCR machine of Qiagen with following PCR program: 95°C for 2 min, 40 cycli denaturation (95°C, 15 s) and annealing/extension (60°C, 30 s), and dissociation (60–95°C). […] Each sample was run in triplicate. The median value of the triplicates were taken to calculate the deltaCt-values using GAPDH as the normalization gene.
(A) QPCR assays was performed against the GR target gene GILZ/TSC22D3 in HaCat cells treated for 6 h with different concentrations 10, 100 or 1,000 nM Dex or UAMC-1217. Bar graph plot represents the relative mRNA levels of GILZ/TSC22D3 upon Dex or UAMC-1217 treatment. (B) QPCR assays was performed against the TNF-inducible inflammatory gene interleukin-6 (IL6) in HaCat cells treated for 6 h with different concentrations 10, 100, or 1,000 nM Dex or UAMC-1217 either or not, cotreated for the last 4 h with TNF (2,500 IU/ml) as indicated in panel (B). […] Significant mean differences versus control setups panel (A) or TNF treated setup panel (B) are marked as *** (P < 0.001), **(P < 0.01), * (P < 0.05) and were determined by one-way ANOVA (Dunnetts Posttest).
A general note: Real-time PCR tracks product formation cycle by cycle.

Experiment [1] concerns GR Ser211 phosphorylation. Briefly: Western blot of GR Ser211 phosphorylation. The class given is cell-based. The following applies: for concentration dependence of GR Ser211 phosphorylation: HaCat cells, 6 h, 10, 100 or 1,000 nM. The protocol: Whole cell extracts contain multiple protease inhibitors (Complete Mini®, Roche) and Halt phosphatase inhibitor cocktail (Thermoscientific). Soluble protein extracts were obtained after three times freeze and thaw cycles and centrifugation at […] for 15 min at 4°C. Samples were separated by sodium dodecyl sulfate-polyacrylamidegel electrophoresis (SDS-PAGE) and transferred onto nitrocellulose membranes (Hybond C, Amersham) following standard protocols. After blocking, membranes were incubated overnight at 4°C with the primary antibodies: anti-GR (sc-8992, SantaCruz Biotechnology), anti-phospho-GR Ser211 (4161, Cell Signalling) and anti-Actin (A3853, Sigma-Aldrich) followed by dye-conjugated secondary antibodies (LI-COR® Biosciences). Bound complexes were detected with the Odyssey® infrared imaging system (LI-COR®) and quantified by Image J software.
Figure 5 Selective glucocorticoid receptor agonist GSK866 and its analogs UAMC-1217, UAMC-1218 trigger glucocorticoid receptor (GR) Ser211 phosphorylation. (A) Western detection of expression levels of Actin, GR, and GR Ser S211 phosphorylation in HaCat cells following 6 h treatment with 1 µM Dex, UAMC-1217, UAMC-1218, or GSK866. (B) Bar plot representation of Western blot intensities of Actin, GR, and GR Ser S211 phosphorylation observed in panel A, as quantified by Image J. (C) Western detection of expression levels of Actin, GR expression, and Ser S211 phosphorylation in HaCat cells following 6 h treatment with, respectively, 10, 100, or 1,000 nM Dex or UAMC-1217. (D) Bar plot representation of Western blot intensities of Actin, GR, and GR Ser S211 phosphorylation observed in panel (C), as quantified by free Image J software.
(Immunoblotting shows a protein as a band on a membrane.)

Experiment [2] concerns GR nuclear translocation in A549 cells. Briefly: Immunofluorescence of nuclear GR translocation in A549 cells. The class given is cell-based, human. Particulars: serum starved A549 cells, 1 µM, 30 min. The protocol:
To detect endogenous GR in A549 cells, cells were grown in serum free media for 24 h followed by treatment with 1 µM of specific GR ligands. After 30 min of treatment, cells on the cover glass were fixed in 4% formaldehyde in phosphate-buffered saline (PBS), permeabilized with 0.3% Triton X-100–PBS, and then blocked in 5% milk, 10% FCS, 0.3% bovine serum albumin, and 0.3% Triton X-100 in PBS for 30 min at room temperature. Primary antibodies against anti GR-antibody (SantaCruz Biotechnology) were used at a dilution of 1:200. Nuclei were stained by DAPI and samples were analyzed using a confocal Leica LSM410 microscope. To quantify nuclear translocation of GR in a standardized manner, multichannel fluorescence images were analyzed using a script for FIJI image analysis freeware (http://fiji.sc) that is essentially based on a pipeline described before (CellBlocks.ijm) ([39]), and is available upon request. In brief, the analysis first segments nuclei in the Hoechst/DAPI channel and then uses the nuclear mask to define perinuclear cytoplasmic regions of interest (ROIs). Nuclei are detected after local contrast enhancement and Gaussian smoothing to, respectively, cover for spatial illumination heterogeneity and noise. After automatic thresholding (Isodata algorithm), touching nuclei are separated using a conditional watershed algorithm ([40]). Next, cytoplasmic ROIs are determined as concentric bands around the nuclei by Voronoi-restrained region growing ([41]). Finally, the average intensity of the GR channel is measured in both the nuclear and cytoplasmic ROIs and the nuclear-to cytoplasm signal intensity ratio (N/C Ratio) is calculated per cell (Figure S1 in Supplementary Material) ([42]).
Figure 6 Selective glucocorticoid receptor agonist GSK866 analogs UAMC-1217, UAMC-1218, but not UAMC-1158 and UAMC-1159 trigger nuclear glucocorticoid receptor (GR) translocation. (A) Serum starved A549 cells were left solvent treated or treated for 30 min with 1 µM Dex, Dex-mesylate (Dex-Mes), GSK866, UAMC-1158, UAMC-1159, UAMC-1217, or UAMC-1218. GR translocation was evaluated by immunofluorescence whereas nuclei were stained by DAPI dye. Magnification is at 100×. White scalebars represent […]. (B) Automated image quantification of GR translocation of three replicate immunofluorescence images of the different experimental setups.

The test system of a further experiment is GR. Details: method as in PMID 27612544. The following applies: ref [14], cited from earlier work; for % inhibition of GR ligand binding: 1.5 nM [3H]-dexamethasone, 1 µM ligand.

Structures are written as SMILES.

Turning to `CCN(C[C@@](O)(CNC(=O)c1cnn(-c2ccc(F)cc2)c1N)C(F)(F)F)C(=O)c1c(Cl)ccc(NC(=O)CCl)c1Cl` [UAMC-1217], the “TNF-induced IL6 gene expression” value in the experiment with IL6 mRNA is on record as “dose-dependently reverse TNF induced IL6 gene expression”. Besides, the “GR Ser211 phosphorylation” value in experiment [1] (1 µM, 6 h (UAMC-1158: Figure S2, 4 or 24 h)) is “enhance the Ser211 phosphorylation”. Besides, the “concentration dependence of GR Ser211 phosphorylation” value in experiment [1] was “concentration-dependent increase of GR Ser211 phosphorylation”. In experiment [2], the “nuclear GR translocation” value was “induce (partial) translocation of GR from the cytosol to the nucleus”. The “% inhibition of GR ligand binding” value in the experiment with GR is listed as 92%. Moreover, the IC50 (as a rule, the concentration needed to halve the response being measured) in the experiment on GR (displacement of radiolabeled Dex, read-out: IC50 (GR radioligand binding)) was 22 nM. Besides, the Ki (commonly the equilibrium dissociation constant of an inhibitor or competing ligand from its target) at GR (displacement of radiolabeled Dex, read-out: Ki (GR radioligand binding)) was 11 nM.
In the case of `C[C@@H]1C[C@H]2[C@@H]3CCC4=CC(=O)C=C[C@]4(C)[C@@]3(F)[C@@H](O)C[C@]2(C)[C@@]1(O)C(=O)CO` [Dex, Dexamethasone, reference compound], the “TNF-induced IL6 gene expression” value with IL6 mRNA was “dose-dependently reverse TNF induced IL6 gene expression”. In experiment [1], the “concentration dependence of GR Ser211 phosphorylation” value is recorded as “concentration-dependent increase of GR Ser211 phosphorylation”. For the same compound, the “nuclear GR translocation” value in experiment [2] is reported as “induce (partial) translocation of GR from the cytosol to the nucleus”. In addition, the “% inhibition of GR ligand binding” value in the experiment with GR is listed as 100%.
